In patent US12077503B2, “Substituted cyclic amides and their use as herbicides” (FMC CORPORATION, priority 2015, dated 2024):
Like-named read-outs stand apart in the source and are kept apart here.

Tests used:
Assay in all cases: Test A postemergence
Assay type in all cases: in vivo
Kochia (Kochia scoparia) = details: Bassia scoparia, post-emergence, 240 h, postemergence; for pest or weed control at 125 g/ha: 125 g ai/ha; for pest or weed control at 500 g/ha: 500 g ai/ha, 0 to 100 scale, 0 is no effect, 100 is complete control
In short: (§1)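 In a loam soil and sand blend, planted seeds got a preemergence directed soil spray, and young plants at the one- to two-leaf stage, 2–10 cm high, got a postemergence application; ~10 d greenhouse hold; injury rated visually, 0 = none, 100 = complete control.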

[1] = tested on: wheat (Triticum aestivum); details: Triticum aestivum, post-emergence, 240 h, postemergence; for plant injury at 125 g/ha: 125 g ai/ha; for plant injury at 500 g/ha: 500 g ai/ha, 0 to 100 scale, 0 is no effect, 100 is complete control
In short: as §1

[2] = tested on: giant foxtail (Setaria faberii); details: Setaria faberi, post-emergence, 240 h, postemergence; for pest or weed control at 125 g/ha: 125 g ai/ha; for pest or weed control at 500 g/ha: 500 g ai/ha, 0 to 100 scale, 0 is no effect, 100 is complete control
In short: as §1

[3] = tested on: barnyardgrass (Echinochloa crus-galli); details: Echinochloa crus-galli, post-emergence, 240 h, postemergence; for pest or weed control at 125 g/ha: 125 g ai/ha; for pest or weed control at 500 g/ha: 500 g ai/ha, 0 to 100 scale, 0 is no effect, 100 is complete control
In short: as §1

[4] = tested on: Galium (catchweed bedstraw, Galium aparine); details: Galium, post-emergence, 240 h, postemergence; for pest or weed control at 125 g/ha: 125 g ai/ha; for pest or weed control at 500 g/ha: 500 g ai/ha, 0 to 100 scale, 0 is no effect, 100 is complete control
In short: as §1

[5] = visual injury rating after approximately 10 d, read-out: Kochia plant response rating (0 to 100 scale, 0 no effect, 100 complete control)
[6] = visual injury rating after approximately 10 d, read-out: Wheat plant response rating (0 to 100 scale, 0 no effect, 100 complete control)
[7] = visual injury rating after approximately 10 d, read-out: Foxtail, Giant plant response rating (0 to 100 scale, 0 no effect, 100 complete control)
[8] = visual injury rating after approximately 10 d, read-out: Barnyardgrass plant response rating (0 to 100 scale, 0 no effect, 100 complete control)
[9] = visual injury rating after approximately 10 d, read-out: Galium plant response rating (0 to 100 scale, 0 no effect, 100 complete control)
[10] = visual injury on 0 to 100 scale (0 no effect, 100 complete control), approx. 10 d, read-out: Kochia plant response rating
[11] = read-out: Kochia plant response rating
[12] = read-out: Wheat plant response rating
[13] = visual injury on 0 to 100 scale (0 no effect, 100 complete control), approx. 10 d, read-out: Foxtail, Giant plant response rating
[14] = read-out: Foxtail, Giant plant response rating
[15] = visual injury on 0 to 100 scale (0 no effect, 100 complete control), approx. 10 d, read-out: Barnyardgrass plant response rating
[16] = read-out: Barnyardgrass plant response rating
[17] = visual injury on 0 to 100 scale (0 no effect, 100 complete control), approx. 10 d, read-out: Galium plant response rating
[18] = read-out: Galium plant response rating
[19] = visual injury vs untreated controls after approx. 10 d, 0 = no effect, 100 = complete control, read-out: Wheat plant response rating (0 to 100 scale)

COc1c(F)ccc([C@H]2CN(C)C(=O)[C@@H]2C(=O)Nc2ccc(F)cc2F)c1Cl [Compound 894]
pest or weed control at 125 g/ha (Kochia (Kochia scoparia); [5]): 50% | plant injury at 125 g/ha [1, 6]: 20% | pest or weed control at 125 g/ha [2, 7]: 90% | pest or weed control at 125 g/ha [3, 8]: 90% | pest or weed control at 125 g/ha [4, 9]: 40%

COc1cc(C(F)(F)F)ccc1[C@H]1CN(C)C(=O)[C@@H]1C(=O)Nc1ccccc1F [Compound 858]
pest or weed control at 125 g/ha (Kochia (Kochia scoparia); [5]): 20% | plant injury at 125 g/ha [1, 6]: 20% | pest or weed control at 125 g/ha [2, 7]: 80% | pest or weed control at 125 g/ha [3, 8]: 80% | pest or weed control at 125 g/ha [4, 9]: 30%

CCc1cc(CC)cc([C@H]2CNC(=O)[C@@H]2C(=O)Nc2cccc(F)c2F)c1 [Compound 1139]
pest or weed control at 125 g/ha (Kochia (Kochia scoparia); [10]): 0% | pest or weed control at 500 g/ha (Kochia (Kochia scoparia); [11]): 0% | plant injury at 125 g/ha ([1]; visual injury on 0 to 100 scale (0 no effect, 100 complete control), approx. 10 d, read-out: Wheat plant response rating): 50% | plant injury at 500 g/ha [1, 12]: 70% | pest or weed control at 125 g/ha [2, 13]: 40% | pest or weed control at 500 g/ha [2, 14]: 70% | pest or weed control at 125 g/ha [3, 15]: 60% | pest or weed control at 500 g/ha [3, 16]: 90% | pest or weed control at 125 g/ha [4, 17]: 50% | pest or weed control at 500 g/ha [4, 18]: 60%

Cc1cc(C)cc([C@H]2CN(C)C(=O)[C@@H]2C(=O)Nc2ccccc2F)c1 [Compound 910]
pest or weed control at 125 g/ha (Kochia (Kochia scoparia); [5]): 20% | plant injury at 125 g/ha [1, 6]: 0% | pest or weed control at 125 g/ha [2, 7]: 90% | pest or weed control at 125 g/ha [3, 8]: 90% | pest or weed control at 125 g/ha [4, 9]: 30%

CCOc1ccc([C@H]2CNC(=O)[C@@H]2C(=O)Nc2ccccc2F)cc1 [Compound 906]
pest or weed control at 125 g/ha (Kochia (Kochia scoparia); [5]): 0% | plant injury at 125 g/ha [1, 6]: 0% | pest or weed control at 125 g/ha [2, 7]: 0% | pest or weed control at 125 g/ha [3, 8]: 0% | pest or weed control at 125 g/ha [4, 9]: 0%

CN1C[C@H](c2ccc(C(F)(F)F)cc2)[C@@](F)(C(=O)Nc2cccc(F)c2F)C1=O (racemic) [Compound 1151]
pest or weed control at 125 g/ha (Kochia (Kochia scoparia); [10]): 30% | pest or weed control at 500 g/ha (Kochia (Kochia scoparia); [11]): 60% | plant injury at 125 g/ha [1, 19]: 40% | plant injury at 500 g/ha [1, 12]: 60% | pest or weed control at 125 g/ha [2, 13]: 70% | pest or weed control at 500 g/ha [2, 14]: 80% | pest or weed control at 125 g/ha [3, 15]: 80% | pest or weed control at 500 g/ha [3, 16]: 90% | pest or weed control at 125 g/ha [4, 17]: 20% | pest or weed control at 500 g/ha [4, 18]: 60%

CC(C)c1cccc([C@H]2CN(C)C(=O)[C@@H]2C(=O)Nc2ccc(F)cc2F)c1 [Compound 821]
pest or weed control at 125 g/ha (Kochia (Kochia scoparia); [5]): 30% | plant injury at 125 g/ha [1, 6]: 0% | pest or weed control at 125 g/ha [2, 7]: 80% | pest or weed control at 125 g/ha [3, 8]: 90% | pest or weed control at 125 g/ha [4, 9]: 50%

CCc1cc([C@H]2CNC(=O)[C@@H]2C(=O)Nc2cccc(F)c2F)cs1 [Compound 1155]
pest or weed control at 125 g/ha (Kochia (Kochia scoparia); visual injury vs untreated controls after approx. 10 d, 0 = no effect, 100 = complete control, read-out: Kochia plant response rating (0 to 100 scale)): 0% | pest or weed control at 500 g/ha (Kochia (Kochia scoparia); [11]): 0% | plant injury at 125 g/ha [1, 19]: 20% | plant injury at 500 g/ha [1, 12]: 50% | pest or weed control at 125 g/ha ([2]; visual injury vs untreated controls after approx. 10 d, 0 = no effect, 100 = complete control, read-out: Foxtail, Giant plant response rating (0 to 100 scale)): 30% | pest or weed control at 500 g/ha [2, 14]: 70% | pest or weed control at 125 g/ha ([3]; visual injury vs untreated controls after approx. 10 d, 0 = no effect, 100 = complete control, read-out: Barnyardgrass plant response rating (0 to 100 scale)): 80% | pest or weed control at 500 g/ha [3, 16]: 90% | pest or weed control at 125 g/ha ([4]; visual injury vs untreated controls after approx. 10 d, 0 = no effect, 100 = complete control, read-out: Galium plant response rating (0 to 100 scale)): 40% | pest or weed control at 500 g/ha [4, 18]: 60%
